Target: T1, Topo I (Saccharomyces cerevisiae, UniProt P04786)
T1 construct: yeast strains that are DSB repair defective, with (rad50) or without Topo I (rad50, top1), and a wild type control (wt); endogenous in cells; host or cells: S. cerevisiae A364a background, rad50 (erg6 pdr1 pdr3), compared with rad50 top1
T1 sequence (P04786 1-769): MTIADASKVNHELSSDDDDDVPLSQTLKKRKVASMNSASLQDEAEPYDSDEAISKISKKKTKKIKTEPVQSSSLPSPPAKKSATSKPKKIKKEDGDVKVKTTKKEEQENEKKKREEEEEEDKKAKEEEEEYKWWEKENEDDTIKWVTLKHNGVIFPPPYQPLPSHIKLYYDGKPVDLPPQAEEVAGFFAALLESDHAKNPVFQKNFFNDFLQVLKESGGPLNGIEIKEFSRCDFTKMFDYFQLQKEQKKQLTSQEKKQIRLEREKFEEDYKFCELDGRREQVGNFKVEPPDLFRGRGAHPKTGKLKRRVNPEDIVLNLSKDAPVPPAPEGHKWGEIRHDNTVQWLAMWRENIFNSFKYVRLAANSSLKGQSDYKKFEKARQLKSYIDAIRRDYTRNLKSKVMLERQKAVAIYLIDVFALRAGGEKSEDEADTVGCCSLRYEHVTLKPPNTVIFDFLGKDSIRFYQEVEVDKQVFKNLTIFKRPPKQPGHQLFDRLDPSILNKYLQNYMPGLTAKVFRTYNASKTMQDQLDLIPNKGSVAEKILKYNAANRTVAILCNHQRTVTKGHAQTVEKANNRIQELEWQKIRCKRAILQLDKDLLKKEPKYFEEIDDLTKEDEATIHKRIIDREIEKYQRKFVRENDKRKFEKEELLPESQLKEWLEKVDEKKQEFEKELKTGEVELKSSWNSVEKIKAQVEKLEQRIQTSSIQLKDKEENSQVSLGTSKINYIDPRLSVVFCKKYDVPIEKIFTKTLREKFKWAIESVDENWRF
Test: Yeast toxicity in strains with or without Topo I (rad50 vs rad50 top1)
Assay type: cell-based
Details: rad50 top1 vs rad50 strain
Source text: The strains are derived from the A364a genetic background, with the exception of BY4705, which is derived from the S288C background. Gene disruptions were generated by PCR fragment directed replacement (Baudin, et al., Nucleic Acids Research 21: 3329–30 (1993), Guldener, et al., Nucleic Acids Research 24: 2519–24 (1996)). Yeast overexpressing topoisomerase II was constructed by a PCR fragment directed promoter replacement of the topoisomerase II promoter with the yeast GPD promoter flanked upstream by the URA3 marker. All strains (except BY4705) bear the pleitropic drug sensitizing mutations erg6, pdr1, and pdr3 (Balzi, et al., Journal of Bioenergetics & Biomembranes 27: 71–6 (1995), Delaveau, et al, Molecular & General Genetics 244: 501–11 (1994), Gaber, et al., Molecular & Cellular Biology 9: 3447–56 (1989), Saunders, et al., Canadian Journal of Genetics & Cytology, 24: 493–503 (1982). Subik, et al, Current Genetics 10: 665–70 (1986)). The haploid yeast strain BY4705 (Brachmann, et al., Yeast 14: 115–32 (1998)) was used in the experiments described in FIG. 5. Plasmids expressing yeast or human topoisomerase I genes under the GAL promoter (Knab, et al., Journal of Biological Chemistry 268: 22322–30 (1993). Knab, et al., Journal of Biological Chemistry 270: 6141–8 (1995)) were transformed into BY4705 using standard procedures.
Yeast toxicity assays were performed essentially as follows: Exponentially growing cultures of the appropriate strains were diluted in synthetic complete media to a concentration of 7.4×10^4 cells/mL, and aliquots (135 μL) were transferred to each well of clear flat-bottomed 96 well plates. Compounds were added in duplicate or triplicate as 15 μL of the appropriate dilution in 5% DMSO. A 15 μL portion of 5% DMSO was added to control wells. Assay plates were incubated at 30° C. for approximately seven generations growth in solvent control wells (as monitored by OD660, typically 21–24 hours), then the OD660 of the cultures was measured in a microplate reader (Bio-Tek). […]

Compound	effect of deletion of the TOP1 gene on toxicity
O=C(CCl)Nc1ccc(C(=O)N/N=C/c2ccc(Cl)cc2)cc1 [compound Ia]	greatly reduced
CC(=O)[C@]1(O)Cc2c(O)c3c(c(O)c2[C@@H](O[C@H]2C[C@H](N)[C@H](O)[C@H](C)O2)C1)C(=O)c1ccccc1C3=O [idarubicin, reference compound]	little effect
O=c1c(Cl)c(Cl)cnn1CCCl [compound IIa]	greatly reduced

From patent US7173063B1, “Topoisomerase poisons for the treatment of proliferative disorders” (Fred Hutchinson Cancer Research Center, priority 2000, dated 2007)
